ChEMBL document CHEMBL5584216, “Expanded library of novel 2,3-pyrrolidinedione analogues exhibit anti-biofilm activity” (2024)

Legend:
Format in all cases: functional
[1] = tested on: Staphylococcus aureus; test: Antimicrobial activity against methicillin-sensitive Staphylococcus aureus ATCC 25923 assessed as reduction in microbial growth at pH 9.0
[2] = tested on: Staphylococcus aureus; test: Antimicrobial activity against methicillin-resistant Staphylococcus aureus ATCC 33591 assessed as reduction in microbial growth
[3] = tested on: Staphylococcus aureus; test: Antibiofilm activity against methicillin-resistant Staphylococcus aureus ATCC BAA-44 at 5 uM relative to control
[4] = tested on: Staphylococcus aureus; test: Antibiofilm activity against methicillin-resistant Staphylococcus aureus ATCC BAA-44 at 40 uM relative to control
[5] = tested on: Staphylococcus aureus; test: Antibiofilm activity against methicillin-sensitive Staphylococcus aureus ATCC 25923 assessed as biofilm eradication at pH 9.0

Row | SMILES | MIC [1] [µg/mL] | MIC [2] [µg/mL] | Activity [3] [%] | Activity [4] [%] | MBEC [5] [µg/mL]
1 | CC(C)C1C(c2ccc(C(F)(F)F)cc2)=C(O)C(=O)N1c1ccccc1 (stereo not given) | 16 | > 128 | -5 | 3 | 512
2 | CCCCCCN1C(=O)C(O)=C(c2ccc(C(F)(F)F)cc2)C1CC (stereo not given) | 32 | 16 | 59 | 85 | 512
3 | CCC1C(c2ccc(C(F)(F)F)cc2)=C(O)C(=O)N1CCC(C)C (stereo not given) | 64 | > 128 | 47 | 43 | >512
4 | CCC1C(c2ccc(C(F)(F)F)cc2)=C(O)C(=O)N1c1ccccc1 (stereo not given) | 16 | 16 | 5 | 85 | 128
5 | CCC1C(c2ccc(C(F)(F)F)cc2)=C(O)C(=O)N1c1ccccn1 (stereo not given) | 32 | > 128 | 4 | 31 | 128
6 | CCC1C(c2ccc(C(F)(F)F)cc2)=C(O)C(=O)N1c1ccc(F)cc1 (stereo not given) | 16 | 16 | 22 | 81 | 128
7 | O=C1C(O)=C(c2ccc(C(F)(F)F)cc2)CN1c1ccccc1 | > 256 | > 128 | 26 | 8 | 512
8 | CCC1C(c2ccc(C(F)(F)F)cc2)=C(O)C(=O)N1Cc1cccs1 (stereo not given) | 32 | > 128 | 54 | 79 | 128
9 | CC1C(c2ccc(C(F)(F)F)cc2)=C(O)C(=O)N1c1ccccc1 (stereo not given) | 16 | 32 | -26 | 72 | 256
10 | CCC1C(c2ccc(C(F)(F)F)cc2)=C(O)C(=O)N1c1ccc(Br)cc1 (stereo not given) | 32 | 32 | 34 | 72 | 128
11 | CCCCCN1C(=O)C(O)=C(c2ccc(C(F)(F)F)cc2)C1CC (stereo not given) | 32 | 16 | 58 | 63 | 256
12 | CCC1C(c2ccc(C(F)(F)F)cc2)=C(O)C(=O)N1c1ccc(OC)c(OC)c1 (stereo not given) | 64 | > 128 | 17 | 70 | >512
13 | CCCCCCCN1C(=O)C(O)=C(c2ccc(C(F)(F)F)cc2)C1CC (stereo not given) | 32 | 64 | 64 | 59 | >512
14 | CCC1C(c2ccc(C(F)(F)F)cc2)=C(O)C(=O)N1Cc1ccc(OC)cc1OC (stereo not given) | > 256 | > 128 | 63 | 57 | >512
15 | CCC1C(c2ccc(C(F)(F)F)cc2)=C(O)C(=O)N1CCc1ccccc1 (stereo not given) | 64 | > 128 | 23 | 45 | 256
